Columns and labels:
[1] = system: GIST-T1 cell line; assay: Growth inhibition of gastrointestinal stromal tumor cell line GIST-T1 (Celltiter glo); format: cell-based; conditions: Homo sapiens, GISTT1; for GI50: GIST-T1, 72 hours
Experimental: Specifically, 100 μl of the GIST-T1 cell line was added to each well of a 96-well plate at a concentration of 5,000 cells/100 μl. After 24 hours of stabilization, 100 μl of the GIST-T1 cell line was treated with 0.5 μl of each of control compounds and PHI-101 (⅓ serial dilution, 10 points) to a final concentration of up to 50 μM, and cultured at 37° C. under 5% CO2 for 72 hours. As the control compounds, imatinib, dasatinib, sunitinib and ponatinib, which are c-kit inhibitors, were used. After culture, the cells were counted using a Celltiter glo assay kit (Promega), and the 50% growth inhibition values (GI50, μM) of the control compounds and PHI-101 were measured.

[2] = system: Parental Ba/F3 cell line; assay: Growth inhibition of parental Ba/F3 cell line (Celltiter glo); format: cell-based; conditions: Mus musculus, BaF3; Parental Ba/F3, 72 hours
[3] = system: c-kit D816V Ba/F3 cell line; assay: Growth inhibition of c-kit D816V mutant Ba/F3 cell line (Celltiter glo); format: cell-based; conditions: for GI50: Mus musculus, BaF3, cKIT D816V Ba/F3, 72 hours
Experimental: Specifically, 100 μl of a Ba/F3 cell line with a c-kit D816V mutation (FIG. 1) was added to each well of a 96-well plate at a concentration of 10,000 cells/100 μl. After 4 hours, 100 μl of the Ba/F3 cell line was treated with 0.5 μl of each of control compounds and PHI-101 (10-point 1:3 serial dilutions) to a final concentration of up to 50 μM, and cultured at 37° C. under 5% CO2 for 72 hours. As the control compounds, imatinib and sunitinib which are c-kit inhibitors were used. After culture, the cells were counted using a Celltiter glo assay kit (Promega), and the 50% growth inhibition values (GI50, μM) of the control compounds and PHI-101 were measured.

[4] = system: c-kit phosphorylation and downstream signaling (p-STAT3, p-ERK1/2) in c-kit D816V mutant Ba/F3 cell line; assay: Inhibition of c-kit phosphorylation and downstream signaling in c-kit D816V Ba/F3 cells (Western blot); format: cell-based; conditions: 0.1, 1 and 10 μM, 2 hours; controls sunitinib and dasatinib
Experimental: The inhibitory activities of the control compound and PHI-101 against c-kit phosphorylation and downstream signaling (p-STAT3, p-ERK1/2) in the c-kit D816V mutant Ba/F3 cell line were measured, and as control compounds, sunitinib and dasatinib were used.
(§1) Specifically, the c-kit D816V mutant Ba/F3 cell line was dispensed at a density of 1×10^6 cells/ml, treated with each of the control compounds and PHI-101 at concentrations of 0.1, 1 and 10 μM, and then cultured for 2 hours. Lysates of the cells were obtained using lysis buffer (50 mM Tris-HCl pH7.5, 1% NP40, 1 mM EDTA, 150 mM NaCl, 5 mM, Na3VO4 and 2.5 mM NaF, and a protease inhibitor cocktail). Equal amounts of the cell lysates were electrophoresed using 8% SDS-PAGE gel at 100 V for 1 hour and 30 minutes, and the separated protein was electrically transferred to nitrocellulose membranes. The membranes were blocked with 5% skim milk at room temperature for 30 minutes, and allowed to react with primary antibodies (diluted 1:5,000), including p-c-kit tyrosine 719 (Y719), p-STAT3 tyrosine 705 (Y705) and p-ERK1/2 threonine 202/tyrosine 204 (T202/Y204) at 4° C. for 16 to 20 hours. […] Next, the membranes were washed three times with TBST for 5 minutes each time and treated with a chemiluminescent substrate reagent, and the expression level of the protein was measured by detecting luminescence with an X-ray film in the dark.

[5] = system: c-kit D816V Ba/F3 cell line xenograft mouse model; assay: Survival time of c-kit D816V Ba/F3 cell line xenograft mouse model; format: in vivo; conditions: oral, daily
Experimental: As mice, 6-8-week-old NOD SCID female mice (18 to 22 g) (GemPharmatech Co., Ltd.) were prepared. Mice were acclimatized for 7 days before use in the experiment, and mice with abnormal health were excluded from the experiment. Mice were bred in a cage (300×180×150 mm) at a 22±3° C. and a relative humidity of 40% to 70% with a 12-hr light/12-hr dark cycle. Mice were allowed access to sterilized dry granular food (Beijing Keaoxieli Feed Co., Ltd., Beijing, China) and water ad libitum for the entire experimental period except for the period specified in the protocol.
50 ml of c-kit D816V mutant Ba/F3 cells suspension cultured in a 75 T flask were placed in a conical tube and centrifuged at 800 rpm for 2 minutes, centrifuged with DPBS (Dulbecco's Phosphate-Buffered Saline, Welgene) at 800 rpm for 2 minutes, washed, and then suspended in RPMI1640 (Welgene) without antibiotics and fetal bovine serum (FBS). Thereafter, the cells were stained with trypan blue and counted with a hemocytometer. […]
Specifically, while the presence or absence of abnormalities in the mouse model of Example 3-1 was monitored daily by checking the skin condition, bleeding and stool status, whether the body weight changed was checked by measuring the mouse weight at intervals of 3 days after the start of oral administration of each drug. […]

[6] = system: c-kit phosphorylation and downstream signaling (p-AKT, p-ERK1/2, p-S6) in GIST-T1 cell line; assay: Inhibition of c-kit phosphorylation and downstream signaling in GIST-T1 cells (Western blot); format: cell-based, human; conditions: 0.01, 0.1 and 1 μM
[7] = system: GIST-T1 cell line; assay: Apoptotic effect, cleaved PARP Western blot in GIST-T1; format: cell-based, human; conditions: 0.01, 0.1 and 1 μM, 24 hours
Experimental: as §1, with “membranes.” for “membranes. The membranes were blocked with 5% skim milk at room temperature for 30 minutes, and allowed to react with primary antibodies (diluted 1:5,000), including p-c-kit tyrosine 719 (Y719), p-STAT3 tyrosine 705 (Y705) and p-ERK1/2 threonine 202/tyrosine 204 (T202/Y204) at 4° C. for 16 to 20 hours.”
A gastrointestinal stromal tumor cell line was treated with PHI-101, and the level of cleaved PARP, an apoptosis marker, was analyzed. […]
Specifically, the apoptotic effect of PHI-101 against the GIST-T1 cell line was analyzed in the same manner as in Example 1-2, except that the GIST-T1 cell line was treated with each of the control compounds at a concentration of 1 μM and PHI-101 at concentrations of 0.01, 0.1 and 1 μM for 24 hours, and that cleaved PARP diluted at 1:3,000 was used as a primary antibody.

[8] = system: c-kit D816V mutant Ba/F3 cell line; assay: Apoptotic effect, Annexin V-PI FACS analysis; format: cell-based; conditions: 24 hours
Experimental: Specifically, the c-kit D816V mutant Ba/F3 cell line was adjusted to a concentration of 1×10^6 cells/ml and treated with each of PHI-101 at concentrations of 0.1, 1 and 10 μM and the control compound sunitinib at concentrations of 1 and 10 μM for 24 hours. Thereafter, the medium was removed and the cells were washed once with 1 ml PBS. The PBS was removed by centrifugation at 1,000 rpm for 5 minutes. The cells were dissolved in 100 μl of PBS containing Ca^2+ and Mg^2+ and allowed to react with 5 μl of Annexin V for 20 minutes. After completion of the reaction, 400 μl of PBS containing Ca^2+ and Mg^2+ was added, and 5 μl of propidium iodide (PI) was added, and then the degree of apoptotic cell death was analyzed by FACS (fluorescence activated cell sorter) assay using a flow cytometer (FACS-C6, BD).

[9] = system: c-kit D816V mutant Ba/F3 cell line; assay: Cell cycle FACS assay; format: cell-based; conditions: 1 μM, 24 hours
Experimental: The c-kit D816V mutant Ba/F3 cell line was treated with 1 μM of PHI-101, and then the SubG1/GO-1 population was analyzed by cell cycle FACS assay.
Specifically, the c-kit D816V mutant Ba/F3 cell line was adjusted to a concentration of 1×10^6 cells/ml and treated with each of PHI-101 and the control compound sunitinib at a concentration of 1 μM for 24 hours. Thereafter, the medium was removed, and the c-kit D816V mutant Ba/F3 cell line was fixed in 70% ethanol at 4° C. for 24 hours, and then incubated in a PBS buffer solution containing 40 μg/ml of propidium iodide (PI) and 100 μg/ml of RNase for 30 minutes to completely stain the total DNA. Cell cycle analysis of the stained cells was performed using a flow cytometer (FACS-C6, BD). The proportion of cells in G0/G1 phase, S phase and G2/M phase was measured, and based on the measurement results, the SubG1/GO-1 population was determined.

GI50 [1] | GI50 [3] | Structure (SMILES) | GI50 [2] | inhibitory activity against p-c-kit (Y719) phosphorylation [4] | prolongation of survival time compared to vehicle-administered group ([5]; 7 mg/kg) | survival time compared to vehicle-administered group ([5]; 80 mg/kg) | c-kit phosphorylation and downstream signaling [6] | level of cleaved PARP (apoptosis marker) [7] | inhibitory activity against the c-kit D816V Ba/F3 mutant cell line compared with control compounds ([3]; controls imatinib and sunitinib) | selectivity for c-kit D816V Ba/F3 mutant cell line versus parental Ba/F3 cell line ([3]; from GI50 values of Table 1) | IC50 ([1]; GIST-T1 proliferation, read-out: IC50 value in GIST-T1 cells) | induction of apoptosis ([8]; 0.1 μM) | apoptosis, concentration dependence ([8]; 0.1, 1 and 10 μM) | SubG1/GO-1 population [9]
73 nM |  | Cc1nc(Nc2ncc(C(=O)Nc3c(C)cccc3Cl)s2)cc(N2CCN(CCO)CC2)n1 [Dasatinib, dasatinib] |  |  |  |  |  |  |  |  |  |  |  | 
64 nM | 11500 nM | Cc1ccc(NC(=O)c2ccc(CN3CCN(C)CC3)cc2)cc1Nc1nccc(-c2cccnc2)n1 [Imatinib, imatinib] | 12700 nM |  |  |  |  |  |  |  |  |  |  | 
26 nM | 2650 nM | CCN(CC)CCNC(=O)c1c(C)[nH]c(/C=C2\C(=O)Nc3ccc(F)cc32)c1C [Sunitinib, sunitinib] | 13300 nM |  |  |  |  |  |  |  |  |  |  | 

Structure (SMILES) | GI50 [1] | GI50 [3] | GI50 [2] | inhibitory activity against p-c-kit (Y719) phosphorylation [4] | prolongation of survival time compared to vehicle-administered group ([5]; 7 mg/kg) | survival time compared to vehicle-administered group ([5]; 80 mg/kg) | c-kit phosphorylation and downstream signaling [6] | level of cleaved PARP (apoptosis marker) [7] | inhibitory activity against the c-kit D816V Ba/F3 mutant cell line compared with control compounds ([3]; controls imatinib and sunitinib) | selectivity for c-kit D816V Ba/F3 mutant cell line versus parental Ba/F3 cell line ([3]; from GI50 values of Table 1) | IC50 ([1]; GIST-T1 proliferation, read-out: IC50 value in GIST-T1 cells) | induction of apoptosis ([8]; 0.1 μM) | apoptosis, concentration dependence ([8]; 0.1, 1 and 10 μM) | SubG1/GO-1 population [9]
NC(=O)Nc1cc(C#Cc2cccc(F)c2)sc1C(=O)N[C@H]1CCCNC1 [PHI-101, (S)-5-((3-fluorophenyl)ethynyl)-N-(piperidin-3-yl)-3-ureidothiophene-2-carboxamide] | 36 nM | 912 nM | 5010 nM | higher inhibitory activity against p-c-kit (Y719) phosphorylation than the control compounds | 3 days | doubled | decreased c-kit phosphorylation and downstream signaling in a concentration-dependent manner | increased in a manner dependent on the concentration of PHI-101 | higher inhibitory activity against the c-kit D816V Ba/F3 mutant cell line than the control compounds | higher selectivity for the c-kit D816V Ba/F3 mutant cell line than for the parental Ba/F3 cell line | 36 nM | strongly induced apoptosis | apoptosis increased in a concentration-dependent manner | increased

— US12582639B2, “Preventive, relief or therapeutic use of 2,3,5-substituted thiophene compound against gastrointestinal stromal tumor” (PHAROS IBIO CO., LTD, priority 2020, dated 2026)
